# According to patent publication US9492368B2, “External preparation for skin” (HAYASHIBARA CO., LTD., priority 2011, dated 2016):
# Marks after values point to notes of the source that are not given here.
# System: profilaggrin
# Test: Differentiation of keratinocytes: profilaggrin protein expression in NHEK cells by western blotting
# Format: cell-based, human
# Settings: 0.1 μM in medium, eight days, relative to no addition = 1
# From the text: For the anti-wrinkle action of glucosyladenosines, the effect of glucosyladenosines on keratinocytes in the skin was examined as follows using normal human epidermal keratinocytes commonly used for evaluating accelerators for differentiating keratinocytes in the skin. Using normal human epidermal keratinocytes (derived from human newborn and commercialized by Kurabo Industries Ltd., Okayama, Japan, and abbreviated as “NHEK cells”, hereinafter), the effects of glucosyladenosines on the differentiation of keratinocytes was evaluated by comparing the expression level of profilaggrin, as a marker protein of cells in the granular layer, which is specifically expressed in the cells when keratinocytes differentiate into the cells from those in the basal lamina and which is determined by the western blotting method using an antibody specific to the marker protein. In this experiment, the increment of profilaggrin means that cells in the granular layer have been increased as a result of accelerating the differentiation of keratinocytes in the basal lamina.
# NHEK Cells, which had been suspended in EpiLife medium, commercialized by Caskade Biologics Inc., Oregon, USA, containing EDGS (EpiLife Defined Growth Supplement) (abbreviated as “EpiLife medium containing EDGS”, hereinafter), were inoculated to “FALCON MULTI-WELL™ 6WELL”, 6-well plate, commercialized by Becton, Dickinson and Co., NJ, USA, which had been coated with “Cellmatorix Type IV”, a product name of collagen, commercialized by Nitta Gelatin Inc., Osaka, Japan, in a cell amount of 5×10^5 cells/1.5 ml/well; and cultured at 37° C. for two days under a 5 v/v % CO2 condition. […] As control 1, adenosine was diluted with EpiLife medium to give a final concentration of 0.1 μM, 1 μM or 10 μM, and the dilution was added to the plates in a volume of 1.5 ml/well. As control 2, EpiLife medium was only added to plates in a volume of 1.5 ml/well. Thereafter, the cells were incubated for eight days while replacing the medium in each well with a fresh preparation of the same medium as added initially every other day. The culture medium in each well was removed by aspiration, and the resulting cells were washed by adding PBS, followed by adding an extraction buffer to the cells in a volume of 100 μl/well, detaching the cells from each well with a cell scraper, and collecting the cells in “EPPENDORF TUBE”, a product name of a 1.5 ml microtube, commercialized by Eppendorf AG, Hamburg, Germany. The collected cells were mixed by a vortex mixer, suspended, allowed to stand over ice for 30 min, and centrifuged at 15,000×g for 10 min at 4° C. to collect a supernatant for use as a sample for analysis. 20 mM Tris-HCl buffer (pH 8.0) containing 2% by mass of sodium dodecyl sulfate (SDS), 1 mM edetic acid, 20 μM phenylmethylsulfonyl fluoride (PMSF), 20 μM leupeptin, and 0.1 μM aprotinin was used as an extraction buffer.
# Twelve microliters of the above sample for analysis was added to eight micriloters of 2.5 w/v % SDS aqueous solution containing 5 v/v % dithiothreitol (DTT), and the mixture was in usual manner subjected to SDS-polyacrylamide gel electrophoresis after charged on an SDS-polyacrylamide gel in an amount of 20 μg protein per lane. After completing the electrophoresis, proteins contained in the gel were in usual manner transferred to a nitrocellulose membrane, which was then soaked in “BlockAce”, a product name of a blocking solution commercialized by Dainippon Sumitomo Pharma Co., Ltd., Osaka, Japan, to inhibit non-specific reactions. […]
row,SMILES,Expression level of profilaggrin
1,"Nc1ncnc2c1ncn2[C@@H]1O[C@H](CO)[C@@H](O[C@H]2O[C@H](CO)[C@@H](O)[C@H](O)[C@H]2O)[C@H]1O [3′-Glucosyladenosine, α-D-glucopyranosyl-(1→3′)-adenosine]",1.6*
2,"Nc1ncnc2c1ncn2[C@@H]1O[C@H](CO[C@H]2O[C@H](CO)[C@@H](O)[C@H](O)[C@H]2O)[C@@H](O)[C@H]1O [5′-Glucosyladenosine, α-D-glucopyranosyl-(1→5′)-adenosine]",2.1*
3,"Nc1ncnc2c1ncn2[C@@H]1O[C@H](CO)[C@@H](O)[C@H]1O [Adenosine, reference compound]",1.1

# Same assay, conditions: 1 μM in medium, eight days, relative to no addition = 1
row,SMILES,Expression level of profilaggrin
1,"Nc1ncnc2c1ncn2[C@@H]1O[C@H](CO)[C@@H](O[C@H]2O[C@H](CO)[C@@H](O)[C@H](O)[C@H]2O)[C@H]1O [3′-Glucosyladenosine, α-D-glucopyranosyl-(1→3′)-adenosine]",2.4**
2,"Nc1ncnc2c1ncn2[C@@H]1O[C@H](CO[C@H]2O[C@H](CO)[C@@H](O)[C@H](O)[C@H]2O)[C@@H](O)[C@H]1O [5′-Glucosyladenosine, α-D-glucopyranosyl-(1→5′)-adenosine]",3.8**
3,"Nc1ncnc2c1ncn2[C@@H]1O[C@H](CO)[C@@H](O)[C@H]1O [Adenosine, reference compound]",1.2

# Same assay, conditions: 10 μM in medium, eight days, relative to no addition = 1
row,SMILES,Expression level of profilaggrin
1,"Nc1ncnc2c1ncn2[C@@H]1O[C@H](CO)[C@@H](O[C@H]2O[C@H](CO)[C@@H](O)[C@H](O)[C@H]2O)[C@H]1O [3′-Glucosyladenosine, α-D-glucopyranosyl-(1→3′)-adenosine]",2.0**
2,"Nc1ncnc2c1ncn2[C@@H]1O[C@H](CO[C@H]2O[C@H](CO)[C@@H](O)[C@H](O)[C@H]2O)[C@@H](O)[C@H]1O [5′-Glucosyladenosine, α-D-glucopyranosyl-(1→5′)-adenosine]",2.8**
3,"Nc1ncnc2c1ncn2[C@@H]1O[C@H](CO)[C@@H](O)[C@H]1O [Adenosine, reference compound]",0.9

# System: profilaggrin (PFG)
# Test: Real-time PCR gene expression in NHEK cells: profilaggrin
# Format: cell-based, human
# Settings: 1 μM, seven days, relative to control = 1.00
# Protocol: (§1) Since glucosyladenosines were confirmed in Experiment 5 to have an action of enhancing the differentiation of keratinocytes effective for skin improvement, a test for examining the change of the expression level of a molecular marker gene of keratinocytes, as an index, was performed as follows using a real-time PCR analysis method to examine the above action in more detail. The expression level of a ceramide-synthesis-related gene was also studied to examine the influence of glucosyladenosines on ceramide synthesis that had been known to have an important role in moisturizing the skin and barrier function of the skin and deemed to be effective for skin improvement. As genes for analysis, profilaggrin (PFG: a later differentiation marker) and involucrin (INV: an early differentiation marker) as differentiation markers of keratinocytes and β-glucocerebrosidase (GCase) and sphingomyelinase (SMase) as ceramide-synthesis-related enzymes were selected, and a gene for cyclophilin B (CypB) as an internal standard upon practicing PCR reaction was used (see FIG. 7). NHEK cells were inoculated to 6-well plate coated with collagen in an amount of 8×10^4 cells/1.5 ml/well, cultured with EpiLife medium, and cultured at 37° C. for two days under a 5 v/v % CO2 condition. Thereafter, the culture medium was removed, and the resulting cells were added with a fresh EpiLife medium containing 5′-glucosyladenosine, 3′-glucosyladenosine, or adenosine in a volume of 1.5 ml/well (giving a final concentration of 1 μM of any one of glucosyladenosines and adenosine), and cultured for seven days while replacing the medium with a fresh one containing any one of glucosyladenosines and adenosine in a volume of 1.5 ml/well every other day. After completion of the culture, each well was washed twice with PBS(K−), followed by adding 0.2 ml/well of 0.025% by mass of trypsin/EDTA solution to the resulting cells and allowing the cells to stand at an ambient temperature for five minutes to detach them from the plates. […]
row,SMILES,Gene expression level PFG
1,"Nc1ncnc2c1ncn2[C@@H]1O[C@H](CO)[C@@H](O[C@H]2O[C@H](CO)[C@@H](O)[C@H](O)[C@H]2O)[C@H]1O [3′-Glucosyladenosine, α-D-glucopyranosyl-(1→3′)-adenosine]",2.03*
2,"Nc1ncnc2c1ncn2[C@@H]1O[C@H](CO[C@H]2O[C@H](CO)[C@@H](O)[C@H](O)[C@H]2O)[C@@H](O)[C@H]1O [5′-Glucosyladenosine, α-D-glucopyranosyl-(1→5′)-adenosine]",2.54**
3,"Nc1ncnc2c1ncn2[C@@H]1O[C@H](CO)[C@@H](O)[C@H]1O [Adenosine, reference compound]",1.41

# System: sphingomyelinase (SMase)
# Test: Real-time PCR gene expression in NHEK cells: sphingomyelinase
# Format: cell-based, human
# Settings: 1 μM, seven days, relative to control = 1.00
# Protocol: as §1
row,SMILES,Gene expression level SMase
1,"Nc1ncnc2c1ncn2[C@@H]1O[C@H](CO)[C@@H](O[C@H]2O[C@H](CO)[C@@H](O)[C@H](O)[C@H]2O)[C@H]1O [3′-Glucosyladenosine, α-D-glucopyranosyl-(1→3′)-adenosine]",2.03*
2,"Nc1ncnc2c1ncn2[C@@H]1O[C@H](CO[C@H]2O[C@H](CO)[C@@H](O)[C@H](O)[C@H]2O)[C@@H](O)[C@H]1O [5′-Glucosyladenosine, α-D-glucopyranosyl-(1→5′)-adenosine]",2.57**
3,"Nc1ncnc2c1ncn2[C@@H]1O[C@H](CO)[C@@H](O)[C@H]1O [Adenosine, reference compound]",1.35
